Patent US10174202B2, “Dyes with phosphinic acid, phosphinate, phosphonate and phosphonamidate substituents as auxochromic groups and methods for preparing the same” (Max-Planck-Gesellschaft zur Foerderung der Wissenschaften …, priority 2017, dated 2019)
Where “and” joins values, the source holds several entries; their conditions need not be identical. Equal values may be shown once. Where a name gives a salt, the structure may show the parent alone. Marks after values point to notes of the source that are not given here.

Assays:
Format in all cases: physicochemical
[1] = Fluorescence lifetime
[2] = Emission spectra and fluorescence quantum yield
Procedure: (§1) Absorption spectra were recorded with a Varian Cary 4000 UV-Vis double-beam spectrophotometer (Agilent Technologies, USA). For the determination of the absorption spectra, quartz cells with a 1 cm path length were used. Emission spectra and fluorescence quantum yield were obtained on a Quantaurus-QY Absolute PL quantum yield spectrometer C11347 (Hamamatsu Photonics, Japan) or on a Varian Cary Eclipse fluorescence spectrometer (Agilent Technologies, USA).

[3] = Absorption spectroscopy (UV/Vis)
Procedure: as §1

[4] = in acetonitrile, trifluoroacetate
[5] = in aq. PBS, pH 7.4, trifluoroacetate

fluorescence lifetime ([1]; in methanol + 1% v/v trifluoroacetic acid)	fluorescence emission (in words) [2]	Compound	fluorescence lifetime ([1]; in acetonitrile)	Emission max. ([2]; in acetonitrile)	QY (fluorescence quantum yield, Φfl) ([2]; in acetonitrile)	Stokes shift ([2]; in acetonitrile)	Absorption max. ([3]; in acetonitrile)	ε at absorption max. ([3]; in acetonitrile)	Emission max. ([2]; in aq. PBS, pH 7.4)	QY (fluorescence quantum yield, Φfl) ([2]; in aq. PBS, pH 7.4)	Stokes shift ([2]; in aq. PBS, pH 7.4)	Absorption max. ([3]; in aq. PBS, pH 7.4)	ε at absorption max. ([3]; in aq. PBS, pH 7.4)	ε at absorption max. [3, 4]	ε at absorption max. [3, 5]	Emission max. ([2]; in methanol)	QY (fluorescence quantum yield, Φfl) ([2]; in methanol)	Stokes shift ([2]; in methanol)	Absorption max. ([3]; in methanol)	ε at absorption max. ([3]; in methanol)
–	–	CCN(CC)c1ccc2c(P(=O)(OC)OC)c(-c3nc4ccccc4s3)c(=O)oc2c1 [Compound 1, Dimethyl [3-(benzo[d]thiazol-2-yl)-7-(diethylamino)-2-oxo-2H-chromen-4-yl]phosphonate]	2.55^a ns	651 nm	0.20	212^a nm	439 nm	24000 M⁻¹ cm⁻¹	–	–	–	–	–	–	–	–	–	–	–	–
–	–	COP(=O)(OC)c1c(-c2nc3ccccc3s2)c(=O)oc2cc(N3CC(O)C3)ccc12 [Compound 2, Dimethyl [3-(benzo[d]thiazol-2-yl)-7-(3-hydroxyazetidin-1-yl)-2-oxo-2H-chromen-4-yl]phosphonate]	1.99^a ns	651 nm	0.16	227^a nm	424 nm	19000 M⁻¹ cm⁻¹	–	–	–	–	–	–	–	–	–	–	–	–
–	–	CCN(CC)c1ccc2c(P(=O)(OC(C)(C)C)OC(C)(C)C)c(-c3nc4ccccc4s3)c(=O)oc2c1 [Compound 3, Di-tert-butyl [3-(benzo[d]thiazol-2-yl)-7-(diethylamino)-2-oxo-2H-chromen-4-yl]phosphonate]	2.49^a ns	658 nm	0.29	224^a nm	434 nm	39000 M⁻¹ cm⁻¹	–	–	–	–	–	–	–	–	–	–	–	–
1.85 ns and 0.93 ns	–	CCN(CC)c1ccc2c(P(=O)(O)O)c(-c3nc4ccccc4s3)c(=O)oc2c1 [Compound 4, [3-(Benzo[d]thiazol-2-yl)-7-(diethylamino)-2-oxo-2H-chromen-4-yl]phosphonic acid]	2.91 ns	613 nm	0.04	–	–	–	613 nm	0.04	194^b nm	419 nm	22000 M⁻¹ cm⁻¹	–	–	–	–	–	–	–
–	–	COP(=O)(OC)c1c2ccc(=[N+](C)C)cc-2oc2cc(N(C)C)ccc12.O=C([O-])C(F)(F)F [Compound 5, 9-(Dimethoxyphosphoryl)-3,6-bis(dimethylamino)-9H-xanthenylium trifluoroacetate]	–	–	–	–	–	–	667 nm	0.16	–	–	21400 M⁻¹ cm⁻¹	–	–	–	–	–	–	–
–	–	CC(C)OP(=O)(OC(C)C)c1c2ccc(N(C)C)cc2[o+]c2cc(N(C)C)ccc12.O=C([O-])C(F)(F)F [Compound 6, 9-(Diisopropoxyphosphoryl)-3,6-bis(dimethylamino)-9H-xanthenylium trifluoroacetate]	–	649 nm	0.38	32 nm	617 nm	–	668 nm	0.12	39 nm	629 nm	–	57638 M⁻¹ cm⁻¹ and 57600 M⁻¹ cm⁻¹	52254 M⁻¹ cm⁻¹ and 52300 M⁻¹ cm⁻¹	–	–	–	–	–
–	–	COP(=O)(c1c2ccc(N(C)C)cc2[o+]c2cc(N(C)C)ccc12)N(C(C)C)C(C)C.O=C([O-])C(F)(F)F (stereo not shown) [Compound 7, 9-[(Diisopropylamino)(methoxy)phosphoryl]-3,6-bis(dimethylamino)-9H-xanthenylium trifluoroacetate]	–	649 nm	0.39	33 nm	616 nm	–	664 nm	0.11	36 nm	628 nm	–	52455 M⁻¹ cm⁻¹ and 52500 M⁻¹ cm⁻¹	46051 M⁻¹ cm⁻¹ and 46100 M⁻¹ cm⁻¹	–	–	–	–	–
–	–	CN(C)c1ccc2c(P(=O)(c3ccccc3)c3ccccc3)c3ccc(N(C)C)cc3[o+]c2c1.O=C([O-])C(F)(F)F [Compound 8, 3,6-Bis(dimethylamino)-9-(diphenylphosphoryl)-9H-xanthenylium trifluoroacetate]	–	600 nm	0.35	26 nm	574 nm	–	639 nm	0.26	38 nm	601 nm	–	–	–	–	–	–	–	–
–	–	C=CCOC(=O)CCCOP(=O)(OC)[c+]1c2ccc(N(C)C)cc2oc2cc(N(C)C)ccc21 (stereo not shown) [Compound 12, 9-[[4-(Allyloxy)-4-oxobutoxy](methoxy)phosphoryl]-3,6-bis(dimethylamino)-9H-xanthen-9-ylium chloride]	–	653 nm	0.32	32 nm	621 nm	42690 M⁻¹ cm⁻¹ and 42700 M⁻¹ cm⁻¹	669 nm	0.17	37 nm	632 nm	29540 M⁻¹ cm⁻¹	–	–	–	–	–	–	–
–	–	CN(C)c1ccc2c([PH](=O)[O-])c3ccc(N(C)C)cc3[o+]c2c1 [Compound 13, [3,6-Bis(dimethylamino)-9H-xanthenylium-9-yl]phosphinate]	–	–	–	–	–	–	627 nm	0.33	37^b nm	590 nm	59543 M⁻¹ cm⁻¹ and 59400 M⁻¹ cm⁻¹	–	–	–	–	–	–	–
–	–	CCOP(=O)(CC(=O)[O-])c1c2ccc(N(C)C)cc2[o+]c2cc(N(C)C)ccc12 (stereo not shown) [Compound 14, 2-[[3,6-Bis(dimethylamino)-9H-xanthenylium-9-yl](ethoxy)phosphoryl]acetate]	–	656 nm	0.32	31 nm	625 nm	22599 M⁻¹ cm⁻¹	667 nm	0.22	36 nm	631 nm	47622 M⁻¹ cm⁻¹	–	–	–	–	–	–	–
–	–	CN(C)c1ccc2c(P(=O)([O-])CCC(=O)O)c3ccc(=[N+](C)C)cc-3oc2c1 [Compound 15, [3,6-Bis(dimethylamino)-9H-xanthenyhum-9-yl](2-carboxyethyl)phosphinate]	–	–	–	–	–	–	636 nm	0.29	38^b nm	598 nm	52094 M⁻¹ cm⁻¹ and 52100 M⁻¹ cm⁻¹	–	–	–	–	–	–	–
–	–	COP(=O)(C1=c2cc3c4c(c2Oc2c1cc1c5c2CCCN5CCC1)CCC[N+]=4CCC3)N(C(C)C)C(C)C (stereo not shown) [Compound 17, 9-[(Diisopropylamino)(methoxy)phosphoryl]-1H,2H,3H5H,6H,7H,11H,12H,13H,15H,16H,17H-pyrido[3,2,1-ij]quinolizino[1′,9′:6,7,8]chromeno[2,3-f]quinolinium trifluoroacetate]	–	679 nm	0.25	30 nm	649 nm	–	696 nm	0.11	35 nm	661 nm	–	52455 M⁻¹ cm⁻¹ and 53000 M⁻¹ cm⁻¹	46976 M⁻¹ cm⁻¹ and 47000 M⁻¹ cm⁻¹	–	–	–	–	–
–	–	COP(=O)([O-])C1=c2cc3c4c(c2Oc2c1cc1c5c2CCCN5CCC1)CCC[N+]=4CCC3 [Compound 18, Methyl (1H,2H,3H,5H,6H,7H,11H,12H,13H,15H,16H,17H-pyrido[3,2,1-ij]quinolizino[1′,9′:6,7,8]chromeno[2,3-f]quinolinium-9-yl)phosphonate]	–	623 nm	0.85	27 nm	596 nm	49565 M⁻¹ cm⁻¹ and 49600 M⁻¹ cm⁻¹	666 nm	0.17	36 nm	630 nm	52286 M⁻¹ cm⁻¹ and 52300 M⁻¹ cm⁻¹	–	–	–	–	–	–	–
–	–	CCOP(=O)(C1=c2cc3c4c(c2Oc2c1cc1c5c2CCCN5CCC1)CCC[N+]=4CCC3)N(C)CCC(=O)O (stereo not shown) [Compound 19, 9-[[(2-Carboxyethyl)(methyl)amino](ethoxy)phosphoryl]-1H,2H,3H,5H,6H,7H,11H,12H,13H,15H,16H,17H-pyrido[3,2,1-ij]quinolizino[1′,9′:6,7,8]chromeno[2,3-f]quinolinium trifluoroacetate]	–	682 nm	0.19	34 nm	648 nm	29373 M⁻¹ cm⁻¹	705 nm	0.11	46 nm	659 nm	37214 M⁻¹ cm⁻¹	–	–	–	–	–	–	–
–	–	COP(=O)(OC)c1c2ccc(N(C)C)cc2[n+](C)c2cc(N(C)C)ccc12 [Compound 22, 9-(Dimethoxyphosphoryl)-3,6-bis(dimethylamino)-10-methylacridinium trifluoroacetate]	–	–	–	–	–	–	–	–	–	–	–	–	–	620 nm	0.95	60^e nm	560 nm	43000 M⁻¹ cm⁻¹
–	–	CN(C)c1ccc2c(c1)-c1cccc3c(N(C)C)ccc(c13)C2.[O-][Cl+3]([O-])([O-])O [Compound 28d]	–	–	–	–	–	–	–	–	–	–	–	–	–	673 nm	0.25	–	646 nm	23000 M⁻¹ cm⁻¹
–	no emission (quencher)	CC1=CC(C)=[N+]2C1=C(P(=O)(OC(C)C)OC(C)C)c1c(C)cc(C)n1[B-]2(F)F [Compound 29, 10-(Diisopropoxyphosphoryl)-5,5-difluoro-1,3,7,9-tetramethyl-5H-dipyrrolo[1,2-c:2′,1′-f][1,3,2]diazaborinin-4-ium-5-uide]	–	647 nm	< 0.002	73^a nm	574 nm	33000 M⁻¹ cm⁻¹	–	–	–	–	–	–	–	–	–	–	–	–
